In ChEMBL document CHEMBL3351936, “Novel 25-hydroxyprotopanaxadiol derivatives incorporating chloroacetyl chloride and their anti-tumor evaluation” (Bioorg Med Chem Lett, 2014):

Columns and labels:
HeLa = assay: Antiproliferative activity against human HeLa cells assessed as cell-growth inhibition after 48 hrs by MTT assay; assay type: functional, cell-based
LoVo = assay: Antiproliferative activity against human LoVo cells assessed as cell-growth inhibition after 48 hrs by MTT assay; assay type: functional, cell-based
[1] = Antiproliferative activity against human HCT116 cells assessed as cell-growth inhibition after 48 hrs by MTT assay; assay type: functional, cell-based; conditions: HCT-116, 48 h
[2] = Antiproliferative activity against human U87 cells assessed as cell-growth inhibition after 48 hrs by MTT assay; assay type: functional, cell-based, U-87MG ATCC; conditions: U-87 MG
[3] = Antiproliferative activity against human BGC823 cells assessed as cell-growth inhibition after 48 hrs by MTT assay; assay type: functional, cell-based; conditions: BGC-823, 48 h
MCF7 = assay: Antiproliferative activity against human MCF7 cells assessed as cell-growth inhibition after 48 hrs by MTT assay; assay type: functional, cell-based; conditions: MCF7, 48 h

In the case of `O=c1[nH]cc(F)c(=O)[nH]1` [FLUOROURACIL], the IC50 (HeLa) is reported as 18.1 µM, the IC50 (LoVo) is reported as 12.7 µM and the IC50 [1] is reported as 36.2 µM. The IC50 [2] was 38.2 µM and the IC50 [3] was 35.6 µM.
With `CC(=O)O[C@H]1CC[C@]2(C)[C@H]3C[C@@H](O)[C@@H]4[C@@H]([C@](C)(O)CCCC(C)(C)O)CC[C@@]4(C)[C@]3(C)CC[C@H]2C1(C)C` the IC50 (HeLa) was 30.2 µM, the IC50 (MCF7) was 19.5 µM and the IC50 (LoVo) was 44.9 µM. The IC50 [1] was 20.5 µM, the IC50 [2] was 32.6 µM and the IC50 [3] was 34.6 µM.
For `C=C(CCCC(C)(C)O)[C@H]1CC[C@]2(C)[C@@H]1[C@H](OC(=O)CCl)C[C@@H]1[C@@]3(C)CC[C@H](OC(=O)CCl)C(C)(C)[C@@H]3CC[C@]12C`, the IC50 (HeLa) was 21.7 µM, the IC50 (MCF7) was 1.7 µM and the IC50 (LoVo) was 2.1 µM. For the same compound, the IC50 [1] was 1.6 µM, the IC50 [2] was 22.8 µM and the IC50 [3] was 8.3 µM.
For `C/C(=C/CCC(C)(C)OC(=O)CCl)[C@H]1CC[C@]2(C)[C@@H]1[C@H](O)C[C@@H]1[C@@]3(C)CC[C@H](OC(=O)CCl)C(C)(C)[C@@H]3CC[C@]12C`, the IC50 (HeLa) was 23.4 µM, the IC50 (MCF7) was 7.9 µM and the IC50 (LoVo) was 1.3 µM. For the same compound, the IC50 [1] was 1.2 µM, the IC50 [2] was 21.3 µM and the IC50 [3] was 24.2 µM.
In the case of `CC(=O)O[C@H]1CC[C@]2(C)[C@H]3C[C@@H](OC(C)=O)[C@@H]4[C@@H]([C@](C)(O)CCCC(C)(C)O)CC[C@@]4(C)[C@]3(C)CC[C@H]2C1(C)C`, the IC50 (HeLa) is reported as 28.9 µM, the IC50 (MCF7) is reported as 23.5 µM and the IC50 (LoVo) is reported as 35.6 µM. It also gave an IC50 [1] of 17.1 µM, an IC50 [2] of 41.2 µM and an IC50 [3] of 42.3 µM.
`C/C(=C/CCC(C)(C)O)[C@H]1CC[C@]2(C)[C@@H]1[C@H](OC(=O)CCl)C[C@@H]1[C@@]3(C)CC[C@H](OC(=O)CCl)C(C)(C)[C@@H]3CC[C@]12C` showed an IC50 (HeLa) of 37.6 µM, an IC50 (MCF7) of 1.6 µM and an IC50 (LoVo) of 1.7 µM. For the same compound, the IC50 [1] was 2.6 µM, the IC50 [2] was 16.6 µM and the IC50 [3] was 7.1 µM.
Compound `C=C(CCCC(C)(C)OC(=O)CCl)[C@H]1CC[C@]2(C)[C@@H]1[C@H](O)C[C@@H]1[C@@]3(C)CC[C@H](O)C(C)(C)[C@@H]3CC[C@]12C` has an IC50 (HeLa) of 39.7 µM, an IC50 (MCF7) of 10.8 µM and an IC50 (LoVo) of 40 µM. For the same compound, the IC50 [1] was 42.8 µM, the IC50 [2] was 10.1 µM and the IC50 [3] was 27.1 µM.
With `CC(C)(O)CCC[C@@](C)(O)[C@H]1CC[C@]2(C)[C@@H]1[C@H](OC(=O)CCl)C[C@@H]1[C@@]3(C)CC[C@H](O)C(C)(C)[C@@H]3CC[C@]12C` the IC50 (HeLa) was 37.2 µM, the IC50 (MCF7) was 26.2 µM and the IC50 (LoVo) was 31.1 µM. It also gave an IC50 [1] of 32.1 µM, an IC50 [2] of 7.3 µM and an IC50 [3] of 30.9 µM.
Compound `CC(=O)O[C@@H]1C[C@@H]2[C@@]3(C)CC[C@H](O)C(C)(C)[C@@H]3CC[C@@]2(C)[C@]2(C)CC[C@H]([C@](C)(O)CCCC(C)(C)O)[C@@H]12` has an IC50 (HeLa) of 39.9 µM, an IC50 (MCF7) of 15.6 µM and an IC50 (LoVo) of 36.7 µM. It also gave an IC50 [1] of 18.9 µM, an IC50 [2] of 34.4 µM and an IC50 [3] of 28.7 µM.
`CC(C)(O)CCC[C@@](C)(O)[C@H]1CC[C@]2(C)[C@@H]1[C@H](O)C[C@@H]1[C@@]3(C)CC[C@H](OC(=O)CCl)C(C)(C)[C@@H]3CC[C@]12C` gave an IC50 (HeLa) of 68.1 µM, an IC50 (MCF7) of 84.3 µM and an IC50 (LoVo) of 45.8 µM. For the same compound, the IC50 [1] was 20.4 µM, the IC50 [2] was 31.9 µM and the IC50 [3] was 63.6 µM.
`C=C(CCCC(C)(C)O)[C@H]1CC[C@]2(C)[C@@H]1[C@H](OC(=O)CCl)C[C@@H]1[C@@]3(C)CC[C@H](O)C(C)(C)[C@@H]3CC[C@]12C` showed an IC50 (HeLa) of 56.6 µM, an IC50 (MCF7) of 9.8 µM and an IC50 (LoVo) of 23.5 µM. It also gave an IC50 [1] of 22.5 µM, an IC50 [2] of 24.6 µM and an IC50 [3] of 45.2 µM.
Work on `CC(C)(O)CCC[C@@](C)(O)[C@H]1CC[C@]2(C)[C@@H]1[C@H](OC(=O)CCl)C[C@@H]1[C@@]3(C)CC[C@H](OC(=O)CCl)C(C)(C)[C@@H]3CC[C@]12C` yielded an IC50 (HeLa) of 68.9 µM, an IC50 (MCF7) of 38.1 µM and an IC50 (LoVo) of 41 µM. It also gave an IC50 [1] of 45.6 µM, an IC50 [2] of 88.1 µM and an IC50 [3] of 61.8 µM.
`CC(C)(O)CCC[C@@](C)(O)[C@H]1CC[C@]2(C)[C@@H]1[C@H](O)C[C@@H]1[C@@]3(C)CC[C@H](O)C(C)(C)[C@@H]3CC[C@]12C` showed an IC50 (HeLa) of 48.6 µM, an IC50 (MCF7) of 49.6 µM and an IC50 (LoVo) of 46.7 µM. It also gave an IC50 [1] of 33.3 µM, an IC50 [2] of 27.5 µM and an IC50 [3] of 44.2 µM.
`CC(C)(CCC[C@@](C)(OC(=O)CCl)[C@H]1CC[C@]2(C)[C@@H]1[C@H](O)C[C@@H]1[C@@]3(C)CC[C@H](O)C(C)(C)[C@@H]3CC[C@]12C)OC(=O)CCl` gave an IC50 (HeLa) of 52.6 µM, an IC50 (MCF7) of 12.1 µM and an IC50 (LoVo) of 61.2 µM. It also gave an IC50 [1] of 56.1 µM, an IC50 [2] of 19.2 µM and an IC50 [3] of 32.4 µM.
Compound `C/C(=C/CCC(C)(C)O)[C@H]1CC[C@]2(C)[C@@H]1[C@H](OC(=O)CCl)C[C@@H]1[C@@]3(C)CC[C@H](O)C(C)(C)[C@@H]3CC[C@]12C` has an IC50 (HeLa) of 44.4 µM, an IC50 (MCF7) of 37.8 µM and an IC50 (LoVo) of 31 µM. It also gave an IC50 [1] of 8.6 µM, an IC50 [2] of 34.6 µM and an IC50 [3] of 42.3 µM.
With `CC(C)(CCC[C@@](C)(O)[C@H]1CC[C@]2(C)[C@@H]1[C@H](O)C[C@@H]1[C@@]3(C)CC[C@H](OC(=O)CCl)C(C)(C)[C@@H]3CC[C@]12C)OC(=O)CCl` the IC50 (HeLa) was 27.1 µM, the IC50 (MCF7) was 3.7 µM and the IC50 (LoVo) was 58.1 µM. For the same compound, the IC50 [1] was 38.2 µM, the IC50 [2] was 40.1 µM and the IC50 [3] was 6.9 µM.
For `C=C(CCCC(C)(C)O)[C@H]1CC[C@]2(C)[C@@H]1[C@H](O)C[C@@H]1[C@@]3(C)CC[C@H](OC(=O)CCl)C(C)(C)[C@@H]3CC[C@]12C`, the IC50 (HeLa) was 60.9 µM, the IC50 (MCF7) was 18.9 µM and the IC50 (LoVo) was 19.1 µM. It also gave an IC50 [1] of 12.1 µM, an IC50 [2] of 14.1 µM and an IC50 [3] of 44.4 µM.
